This note sets out measurements from US20100021941A1, “METHODS OF IDENTIFYING MODULATORS OF UBIQUITIN LIGASES” (PROGENRA, INCORPORATED, priority 2008, published 2010).

Test [1] concerns the target T1, E1, E2 and E3 coupled enzyme reaction (GST-E1/His6-UbcH5c/6× His-SUMO-CARP2 ligase) (Homo sapiens, UniProt P22314+P61077+Q8WZ73).
T1 construct: fused on or other part: GST on E1; His6 on UbcH5c; 6x His-SUMO on CARP2; The plate is coated with 6x His-SUMO-UBA2 (yeast Rad23 residues 351-398) as capture reagent
The test is described as follows: E3 ligase assay (autoubiquitylation) on 6× His-SUMO-UBA2 coated plates, anti-ubiquitin antibody/FITC fluorescence detection. It is filed as biochemical. The settings on record: enzymes pre-incubated with compound 30 minutes at room temperature; reaction 60 minutes at 37° C.; 500 nM 6× His SUMO-CARP2; triplicate; FIG. 6A. As for the experimental part:
Medium binding plates (Costar, USA) were coated with 100 μl of 0.1 mg/ml solution of 6× His-SUMO-UBA2 overnight at 4° C. The plates were blocked with 200 μl of 3% BSA in 1× phosphate buffered saline (1× PBS, pH 7.4) for 3 hours at 4° C. and washed with 1× PBS three times. E3 reactions were carried out as follows. For IC50 experiments, various concentrations of NEM, iodoacetamide, and ubistatin A were added to individual wells in triplicate. Controls contained 5 μl of 10% DMSO or 50 mM NEM. The compounds were supplemented with 20 μl of enzyme mixture containing GST-E1 (10 nM)/His6-UbcH5c (100 nM), 6× His SUMO-CARP2 (500 nM) prepared in assay buffer (50 mM Tris-HCl, pH8.0, 2 mM MgCl2, 0.1 mM DTT) and incubated at room temperature for 30 minutes. A pFastBac-GST-E1 vector was expressed and purified from insect cells according to published methods. Beaudenon and Huibregtse, Methods Enzymol, 398: 3-8 9 (2005). A PCR product encoding UbcH5c was generated using the primers 5′-[…]-3′ (SEQ ID NO:24) and 5′-[…]-3′ (SEQ ID NO:25) and human UbcH5c cDNA as the template. The PCR fragment was digested with BsaI and BamHI, and then ligated into pET24D (Novagen) generating 6× His-UbcH5c. […] Plates were washed six times with 1× PBS and readings were taken using the fluorescence plate reader with excitation and emission wavelengths of 485 nm and 535 nm, respectively.

For test [2], the system named is E3 ubiquitylation reaction containing E1, E2 (UbcH5c) and E3. The test is described as follows: E3 ligase inhibition assay using 5′-IAF-UBA1 detection and anti-ubiquitin immunoblot. It is filed as biochemical, human. As to conditions: pre-incubated with various concentrations for 30 minutes at room temperature before adding ubiquitin and ATP; FIGS. 9A-D. As for the experimental part:
E3 ligase reactions contained 10 nM GST-Praja1, 500 nM 6× His-SUMO-CARP2 or 500 nM 6× His-SUMO-MuRF1 as E3s, 50 nM E1, 150 nM UbcH5c (E2), 500 ng Ubiquitin, 2 mM ATP, 50 mM Tris-HCl pH8.0, 5 mM MgCl2, 0.1 mM DTT. For measuring SCF^Atrogin-1 E3 ligase activity, the reaction was assembled essentially as described above except that the E3 ligase contained 6× His-SUMO-Atrogin-1, Cullin-1 (“Cul1”), Roc-1 (“Rbx-1 ”) and 6× His-Skp1 (250 nM each). In order to obtain large amounts of the Cul1-Rbx1 complex for the SCF complex, we used a procedure to overexpress the Cul1-Rbx1 complex in E. coli. Zheng, et al., Nature, 416(6882):703-9 (2002). The Cull gene was split into two halves (residues 1-410 and residues 411-776) and co-expressed with GST-tagged Rbx1 as three different polypeptide chains. A PCR product encoding Skp1 was generated using the primers 5′-[…]-3′ (SEQ ID NO:28) and 5′-[…]-3′ (SEQ ID NO:29) and human Skp1 cDNA as the template. […]
For inhibition assays, reactions containing E1, E2, and E3 were pre-incubated with various concentrations of NEM and ubistatin A for 30 minutes at room temperature before initiating the reaction by adding ubiquitin and ATP. […] The wells were washed with 1× PBS and readings were taken using a fluorescence plate reader with excitation and emission wavelengths of 485 nm and 535nm, respectively. […]

T1 sequence (P22314 2-1058): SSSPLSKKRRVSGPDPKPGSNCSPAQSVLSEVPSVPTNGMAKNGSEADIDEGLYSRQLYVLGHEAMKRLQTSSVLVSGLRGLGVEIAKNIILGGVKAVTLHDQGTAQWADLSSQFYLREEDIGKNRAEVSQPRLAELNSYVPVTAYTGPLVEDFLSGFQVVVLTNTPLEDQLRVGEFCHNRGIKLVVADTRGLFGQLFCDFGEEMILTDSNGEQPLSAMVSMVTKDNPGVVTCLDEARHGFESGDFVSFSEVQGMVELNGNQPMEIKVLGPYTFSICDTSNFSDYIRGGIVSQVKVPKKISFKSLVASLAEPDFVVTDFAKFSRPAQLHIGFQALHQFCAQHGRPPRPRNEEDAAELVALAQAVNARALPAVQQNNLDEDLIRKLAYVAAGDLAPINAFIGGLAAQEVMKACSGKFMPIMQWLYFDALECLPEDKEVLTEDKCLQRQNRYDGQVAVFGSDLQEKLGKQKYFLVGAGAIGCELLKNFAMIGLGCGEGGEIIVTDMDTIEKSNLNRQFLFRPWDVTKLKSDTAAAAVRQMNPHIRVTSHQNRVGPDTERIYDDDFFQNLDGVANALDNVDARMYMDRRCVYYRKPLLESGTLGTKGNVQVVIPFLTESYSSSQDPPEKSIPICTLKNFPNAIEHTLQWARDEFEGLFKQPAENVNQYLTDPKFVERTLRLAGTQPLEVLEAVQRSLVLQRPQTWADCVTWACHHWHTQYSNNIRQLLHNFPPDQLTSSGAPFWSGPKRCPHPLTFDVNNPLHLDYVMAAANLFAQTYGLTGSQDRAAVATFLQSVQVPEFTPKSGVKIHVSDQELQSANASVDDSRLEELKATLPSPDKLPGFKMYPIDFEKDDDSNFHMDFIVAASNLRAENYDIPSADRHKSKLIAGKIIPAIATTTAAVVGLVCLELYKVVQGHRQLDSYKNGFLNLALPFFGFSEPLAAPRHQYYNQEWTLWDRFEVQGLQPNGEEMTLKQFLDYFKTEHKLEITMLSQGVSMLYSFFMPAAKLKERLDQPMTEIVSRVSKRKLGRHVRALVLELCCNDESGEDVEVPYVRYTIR
T1 sequence (P61077 whole entry, the tested form may be a part): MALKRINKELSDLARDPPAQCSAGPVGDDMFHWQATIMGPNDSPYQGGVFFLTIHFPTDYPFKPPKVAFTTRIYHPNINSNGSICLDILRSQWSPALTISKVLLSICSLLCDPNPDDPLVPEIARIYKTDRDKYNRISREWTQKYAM
T1 sequence (Q8WZ73 whole entry, the tested form may be a part): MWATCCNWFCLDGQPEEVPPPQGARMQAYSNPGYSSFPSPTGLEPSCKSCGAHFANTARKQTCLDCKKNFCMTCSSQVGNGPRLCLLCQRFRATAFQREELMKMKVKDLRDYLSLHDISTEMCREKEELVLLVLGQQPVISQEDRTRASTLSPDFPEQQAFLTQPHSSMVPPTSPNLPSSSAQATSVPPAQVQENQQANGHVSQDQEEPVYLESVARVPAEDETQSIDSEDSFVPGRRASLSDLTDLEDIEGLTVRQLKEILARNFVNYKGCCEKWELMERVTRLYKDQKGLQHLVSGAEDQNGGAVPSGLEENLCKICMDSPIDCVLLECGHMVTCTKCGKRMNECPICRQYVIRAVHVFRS

On to `CCN1C(=O)C=CC1=O` [NEM], for which the IC50 in test [1] turned out to be 34.2 µM. Besides, the “inhibition of the E3 ubiquitylation assay” value in test [2] is “inhibited”.
As to `O=C(Nc1ccc(/C=C/c2ccc(NC(=O)c3cc(S(=O)(=O)O)c4cccnc4c3O)cc2S(=O)(=O)O)c(S(=O)(=O)O)c1)c1cc(S(=O)(=O)O)c2cccnc2c1O` [ubistatinA], the IC50 in test [1] worked out at 0.421 µM. Also, the “inhibition of the E3 ubiquitylation assay” value in test [2] was “inhibited”.

Usually IC50 stands for the concentration needed to halve the response being measured.
